Some targets named below: Carbonic anhydrase 4 (Homo sapiens, UniProt P22748); Carbonic anhydrase 14 (Homo sapiens, UniProt Q9ULX7); Carbonic anhydrase 6 (Homo sapiens, UniProt P23280); Carbonic anhydrase 9 (Homo sapiens, UniProt Q16790); Carbonic anhydrase 13 (Homo sapiens, UniProt Q8N1Q1); Carbonic anhydrase 1 (Homo sapiens, UniProt P00915); Carbonic anhydrase 3 (Homo sapiens, UniProt P07451).
Another assay has as its target T1, Carbonic anhydrase 15 (Mus musculus, UniProt Q99N23).
T1 sequence (Q99N23 whole entry): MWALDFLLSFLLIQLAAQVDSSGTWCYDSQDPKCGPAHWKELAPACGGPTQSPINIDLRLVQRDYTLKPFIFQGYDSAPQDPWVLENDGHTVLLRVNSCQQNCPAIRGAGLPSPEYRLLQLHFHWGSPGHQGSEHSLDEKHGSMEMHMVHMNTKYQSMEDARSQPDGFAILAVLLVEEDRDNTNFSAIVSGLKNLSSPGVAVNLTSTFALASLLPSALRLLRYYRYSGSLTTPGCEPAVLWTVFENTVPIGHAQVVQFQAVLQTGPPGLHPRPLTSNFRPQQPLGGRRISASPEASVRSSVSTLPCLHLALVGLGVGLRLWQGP

Another assay has as its target Carbonic anhydrase 12 (Homo sapiens, UniProt O43570). Briefly: Inhibition of human recombinant CA12 by stopped flow CO2 hydrase assay.
Assay [1] addresses Carbonic anhydrase 5A, mitochondrial (Homo sapiens, UniProt P35218).
The target of assay [2] is Carbonic anhydrase 5B, mitochondrial (Homo sapiens, UniProt Q9Y2D0).
Carbonic anhydrase 5B, mitochondrial, sequence (Q9Y2D0 whole entry): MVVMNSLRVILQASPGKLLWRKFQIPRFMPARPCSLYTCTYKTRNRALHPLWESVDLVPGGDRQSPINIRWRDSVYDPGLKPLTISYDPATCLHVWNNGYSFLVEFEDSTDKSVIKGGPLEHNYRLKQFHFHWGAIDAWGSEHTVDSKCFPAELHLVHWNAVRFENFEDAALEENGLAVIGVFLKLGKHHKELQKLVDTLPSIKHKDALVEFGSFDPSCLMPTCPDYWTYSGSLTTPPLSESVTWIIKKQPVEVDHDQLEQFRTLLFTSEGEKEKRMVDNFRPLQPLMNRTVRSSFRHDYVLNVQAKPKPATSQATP
The target of the next assay is Carbonic anhydrase 7 (Homo sapiens, UniProt P43166). In words: Inhibition of human recombinant CA7 by stopped flow CO2 hydrase assay.
Carbonic anhydrase 7, sequence (P43166 whole entry): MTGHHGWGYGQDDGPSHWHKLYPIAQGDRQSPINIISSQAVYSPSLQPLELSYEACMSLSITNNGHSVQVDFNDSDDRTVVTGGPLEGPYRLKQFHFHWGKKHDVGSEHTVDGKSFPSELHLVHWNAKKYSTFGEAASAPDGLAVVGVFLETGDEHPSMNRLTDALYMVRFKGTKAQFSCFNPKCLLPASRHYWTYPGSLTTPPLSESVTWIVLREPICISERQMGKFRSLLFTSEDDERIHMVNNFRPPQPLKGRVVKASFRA

Carbonic anhydrase 13, sequence (Q8N1Q1 whole entry): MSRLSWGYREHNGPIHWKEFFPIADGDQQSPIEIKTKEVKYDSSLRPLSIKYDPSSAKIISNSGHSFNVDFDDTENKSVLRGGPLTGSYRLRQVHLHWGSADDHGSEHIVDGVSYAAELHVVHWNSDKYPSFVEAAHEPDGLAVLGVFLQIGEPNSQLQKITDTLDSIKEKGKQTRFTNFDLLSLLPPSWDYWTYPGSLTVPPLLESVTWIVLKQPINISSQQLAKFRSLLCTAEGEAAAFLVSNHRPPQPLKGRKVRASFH
Carbonic anhydrase 3, sequence (P07451 whole entry): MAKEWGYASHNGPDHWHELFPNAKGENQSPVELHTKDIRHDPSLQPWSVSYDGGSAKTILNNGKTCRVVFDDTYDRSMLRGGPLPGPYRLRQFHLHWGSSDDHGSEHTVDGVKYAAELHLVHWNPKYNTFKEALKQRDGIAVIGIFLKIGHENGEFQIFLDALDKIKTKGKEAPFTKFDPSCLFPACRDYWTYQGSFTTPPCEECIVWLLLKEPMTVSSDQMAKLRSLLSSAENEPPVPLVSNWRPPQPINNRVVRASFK
Carbonic anhydrase 4, sequence (P22748 whole entry): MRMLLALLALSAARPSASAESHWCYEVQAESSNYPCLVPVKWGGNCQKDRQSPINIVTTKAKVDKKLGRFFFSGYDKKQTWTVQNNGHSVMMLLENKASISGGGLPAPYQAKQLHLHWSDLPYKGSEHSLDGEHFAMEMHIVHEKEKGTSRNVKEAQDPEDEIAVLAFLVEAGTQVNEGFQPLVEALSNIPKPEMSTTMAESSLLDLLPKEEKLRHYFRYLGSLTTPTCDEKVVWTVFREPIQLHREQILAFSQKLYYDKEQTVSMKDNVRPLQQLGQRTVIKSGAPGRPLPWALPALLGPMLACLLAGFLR
Carbonic anhydrase 5A, mitochondrial, sequence (P35218 whole entry): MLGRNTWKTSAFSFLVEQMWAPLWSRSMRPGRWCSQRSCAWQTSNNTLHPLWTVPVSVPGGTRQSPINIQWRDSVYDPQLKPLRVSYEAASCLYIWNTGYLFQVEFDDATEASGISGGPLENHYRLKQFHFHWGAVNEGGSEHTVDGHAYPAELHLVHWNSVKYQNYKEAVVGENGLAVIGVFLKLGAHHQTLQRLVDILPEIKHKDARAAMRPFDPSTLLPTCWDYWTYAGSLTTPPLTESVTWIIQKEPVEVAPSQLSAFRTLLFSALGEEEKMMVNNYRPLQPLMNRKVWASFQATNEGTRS
Carbonic anhydrase 6, sequence (P23280 whole entry): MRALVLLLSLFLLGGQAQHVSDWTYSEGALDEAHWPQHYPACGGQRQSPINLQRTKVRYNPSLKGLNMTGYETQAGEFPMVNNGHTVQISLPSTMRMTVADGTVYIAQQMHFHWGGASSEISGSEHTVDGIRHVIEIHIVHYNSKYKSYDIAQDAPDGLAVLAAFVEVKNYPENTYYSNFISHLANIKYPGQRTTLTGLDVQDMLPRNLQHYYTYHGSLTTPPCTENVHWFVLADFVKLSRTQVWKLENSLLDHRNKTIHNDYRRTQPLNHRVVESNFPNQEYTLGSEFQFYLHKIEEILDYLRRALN
Carbonic anhydrase 14, sequence (Q9ULX7 whole entry): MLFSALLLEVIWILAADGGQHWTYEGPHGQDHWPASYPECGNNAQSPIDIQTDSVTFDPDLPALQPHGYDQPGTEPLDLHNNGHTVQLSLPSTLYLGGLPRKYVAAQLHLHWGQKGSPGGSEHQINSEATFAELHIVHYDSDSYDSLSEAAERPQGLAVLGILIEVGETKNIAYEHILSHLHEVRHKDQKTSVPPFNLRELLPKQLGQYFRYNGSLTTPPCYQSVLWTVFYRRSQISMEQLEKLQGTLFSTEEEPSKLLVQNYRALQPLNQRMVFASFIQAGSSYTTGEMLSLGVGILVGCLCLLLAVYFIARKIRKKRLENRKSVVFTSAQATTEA
Carbonic anhydrase 1, sequence (P00915 whole entry): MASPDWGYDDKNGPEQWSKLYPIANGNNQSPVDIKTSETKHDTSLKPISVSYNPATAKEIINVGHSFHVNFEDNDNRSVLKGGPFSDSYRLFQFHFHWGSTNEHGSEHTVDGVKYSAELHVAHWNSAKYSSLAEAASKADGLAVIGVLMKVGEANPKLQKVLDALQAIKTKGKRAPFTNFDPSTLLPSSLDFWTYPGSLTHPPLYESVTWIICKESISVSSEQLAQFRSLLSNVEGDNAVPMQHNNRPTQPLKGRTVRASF
Carbonic anhydrase 12, sequence (O43570 whole entry): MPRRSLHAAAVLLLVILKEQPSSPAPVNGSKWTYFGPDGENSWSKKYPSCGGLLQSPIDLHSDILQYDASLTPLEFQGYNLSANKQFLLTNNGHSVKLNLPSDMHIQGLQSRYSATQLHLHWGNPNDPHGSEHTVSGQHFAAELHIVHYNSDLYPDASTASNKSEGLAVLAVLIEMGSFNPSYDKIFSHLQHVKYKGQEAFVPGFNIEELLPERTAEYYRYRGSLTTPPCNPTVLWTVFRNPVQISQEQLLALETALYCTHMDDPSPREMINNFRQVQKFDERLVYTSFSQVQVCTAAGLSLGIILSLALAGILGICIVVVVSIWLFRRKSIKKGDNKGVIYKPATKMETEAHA

In the case of `COc1cc2oc(=O)ccc2cc1[C@@H](O)CC(C)C`, at Carbonic anhydrase 15, the inhibition constant Ki – broadly, the equilibrium dissociation constant of an inhibitor or competing ligand from its target – turned out to be 93100 nM.
For the compound `COC[C@@H](NC(C)=O)C(=O)NCc1ccccc1` [LACOSAMIDE], the Ki on Carbonic anhydrase 12 was 3710 nM; at Carbonic anhydrase 4, 525 nM; on Carbonic anhydrase 14 it was 473 nM; on Carbonic anhydrase 6, 412 nM; at Carbonic anhydrase 9, 353 nM; in assay [1] it was 4570 nM. Besides, the Ki on Carbonic anhydrase 15 was 461 nM; in [2] it was 341 nM; on Carbonic anhydrase 13, 1210 nM; at Carbonic anhydrase 1 it was 362 nM; on Carbonic anhydrase 3, 374 nM; at Carbonic anhydrase 7 it was 4450 nM.
As for `Nc1ccc(S(N)(=O)=O)cc1` [SULFANILAMIDE], the results for the inhibitory constant (Ki) at Carbonic anhydrase 13 and at Carbonic anhydrase 3 were 32 nM and 988 nM, respectively.

The values above are taken from ChEMBL document CHEMBL1154758 (J Med Chem, 2010).
